In patent US11492325B2, “Compounds as inhibitors of sodium channels” (Human BioMolecular Research Institute, priority 2016, dated 2022):
Where two headings read alike, the source gives them in different places.

Experiments:
[1] = test system: normal human induced pluripotent stem cell (hiPSC) cardiomyocyte; details: for WT-Cessation Dose (μM): WT cardiomyocytes, cessation of beating
[2] = test system: cardiomyocytes derived from hiPSCs from a LQTS3 patient; test: cells; details: Homo sapiens, Cardiomyocyte
[3] = target: Nav1.5 sodium channel, peak current (INaP) (Homo sapiens, UniProt Q14524, form not given); test: in vitro; details: Peak Na+ (INaP) IC50
Procedure: (§1) This provided data to investigate the physiology and action of target compounds on individual ion channels. The assay used standardized protocols for culturing and conducting conventional whole cell recording that have been previously developed for both current and voltage-clamp to characterize action potentials using transfected cells. Briefly, the Nav1.5 sodium channel was transfected into HEK293 cells. […] Briefly, cells were plated on 0.1% gelatin-coated 35-mm plastic Petri dishes. […] Data was reported as IC50 values±STD (Table 1).

[4] = target: Nav1.5 sodium channel transfected into HEK293 cells (Homo sapiens, UniProt Q14524); test: Patch clamp electrophysiology, peak (INaP) and late (INaL) sodium current in transfected cells
Procedure: as §1

[5] = test system: cardiomyocytes derived from hiPSCs from a LQTS3 patient; details: for LQT-EC50 (μM) Shortening: AP shortening
[6] = target: hERG potassium channel (IKr) (Homo sapiens, UniProt Q12809); test: Automated patch clamp, hERG (IKr) expressed in CHO cells; details: for IC50: hERG (IKr) IC50, CHO cells
Chain of hERG potassium channel (IKr) (Q12809 whole entry): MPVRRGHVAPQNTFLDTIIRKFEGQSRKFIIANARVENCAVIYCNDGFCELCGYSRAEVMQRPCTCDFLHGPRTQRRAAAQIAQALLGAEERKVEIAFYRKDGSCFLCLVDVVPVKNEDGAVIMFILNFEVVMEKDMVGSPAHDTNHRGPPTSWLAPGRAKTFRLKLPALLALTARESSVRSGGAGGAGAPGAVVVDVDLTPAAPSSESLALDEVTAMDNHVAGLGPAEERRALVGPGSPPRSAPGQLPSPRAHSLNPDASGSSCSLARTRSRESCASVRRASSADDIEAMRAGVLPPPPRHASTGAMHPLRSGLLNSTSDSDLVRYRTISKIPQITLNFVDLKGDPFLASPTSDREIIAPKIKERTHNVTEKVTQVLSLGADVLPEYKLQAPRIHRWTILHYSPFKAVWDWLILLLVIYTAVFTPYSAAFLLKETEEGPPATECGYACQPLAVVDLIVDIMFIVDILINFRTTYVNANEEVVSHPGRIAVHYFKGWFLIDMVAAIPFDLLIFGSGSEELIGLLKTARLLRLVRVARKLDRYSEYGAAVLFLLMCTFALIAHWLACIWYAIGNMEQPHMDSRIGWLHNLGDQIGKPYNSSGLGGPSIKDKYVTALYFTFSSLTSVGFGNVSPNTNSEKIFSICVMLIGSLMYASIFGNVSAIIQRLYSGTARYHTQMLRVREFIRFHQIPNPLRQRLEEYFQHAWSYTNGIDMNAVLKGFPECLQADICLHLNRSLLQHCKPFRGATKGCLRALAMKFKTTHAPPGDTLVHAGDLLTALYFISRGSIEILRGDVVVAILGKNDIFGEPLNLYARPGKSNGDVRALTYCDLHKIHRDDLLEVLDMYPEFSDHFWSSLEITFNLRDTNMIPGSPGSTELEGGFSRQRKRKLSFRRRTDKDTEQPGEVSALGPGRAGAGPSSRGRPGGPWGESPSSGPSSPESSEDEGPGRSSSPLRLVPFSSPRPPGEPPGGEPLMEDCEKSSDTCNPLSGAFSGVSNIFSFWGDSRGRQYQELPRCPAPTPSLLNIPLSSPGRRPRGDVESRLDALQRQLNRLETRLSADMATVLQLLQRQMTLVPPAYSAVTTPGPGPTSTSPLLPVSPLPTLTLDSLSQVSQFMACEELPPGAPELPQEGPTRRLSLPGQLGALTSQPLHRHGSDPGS

[7] = test system: normal human induced pluripotent stem cell (hiPSC) cardiomyocyte; test: cells; details: read-out: WT-EC50 (μM) Prolongation
[8] = Chemical stability in PBS buffer at pH 7.4 or 3.0, 37° C.; assay type: physicochemical; details: 1% Ethanol
Procedure: A typical incubation contained 100 μM of the test compound prepared in PBS buffer (pH 7.4 or 3.0, 50 mM) with 1% Ethanol. The test compounds were incubated at 37° C. An aliquot from incubations was taken at various times and injected onto an RP-HPLC system as described above. Disappearance of the analyte was monitored over time.

[9] = pH 3, 100 μM in PBS, read-out: Half-Life @ pH 3.0 and 37° C.
[10] = pH 7.4, 100 μM in PBS, read-out: Half-Life @ pH 7.4 and 37° C.

Row | Compound | EC50 [7] | WT-Cessation Dose (μM) [1] | LQT-Fold Shortening ([5]; LQT-3 cardiomyocytes) | LQT-Shortening Dose (μM) ([5]; LQT-3 cardiomyocytes) | LQT-EC50 (μM) Shortening ([5]; LQT-3 cardiomyocytes) | half-life at 100 μM [8, 9] | also measured
1 | COCCNC(COc1cc(C(F)(F)F)cc(C(F)(F)F)c1)c1ccccc1.Cl (stereo not shown) [Compound 80] | – | – | – | – | – | – | WT-Fold Prolongation ([1]; APD, normal hiPSC cardiomyocytes): None; Cessation of Beating ([1]; normal hiPSC cardiomyocytes): None; WT-Prolongation Dose ([1]; normal hiPSC cardiomyocytes): None; IC50 ([2]; read-out: LQT-IC50 (uM)-Shortening): 6.59 µM; IC50 [3]: 45.1 µM; DNap/NaL ([4]; ratio peak IC50/late IC50): 44.2; DNap/NaL ([4]; ratio peak/late IC50, Example 2): 44.2; LQT-Cessation Dose ([5]; LQT3 cardiomyocytes): 133 µM; LQT-Fold Shortening ([5]; LQT3 cardiomyocytes): 1.636; IC50 [6]: 16.8 µM; IC50 ([6]; Example 2): 16.8 µM; DKr/NaL ([6]; ratio hERG IC50/late Na IC50): 16.5; DNaP/Kr ([6]; ratio peak Na IC50/hERG IC50): 2.7; DKr/NaL ([6]; ratio, Example 2): 16.5; DNaP/Kr ([6]; ratio, Example 2): 2.7
2 | Cc1cccnc1OCC(N)c1ccccc1 (stereo not shown) [Compound 94, 2-((3-methylpyridin-2-yl)oxy)-1-phenylethan-1-amine] | 18.5 µM | – | – | – | – | – | Cessation of Beating ([1]; normal hiPSC cardiomyocytes): None; WT-EAD Dose ([1]; normal hiPSC cardiomyocytes): 133 µM; WT-Cessation Dose ([1]; pyridyl derivatives): No cessation of beatimg; EC50 ([2]; read-out: LQT-EC50 (μM) Shortening, pyridyl derivatives): 12.8 µM
3 | Cc1ccncc1OCC(N)c1ccccc1 (stereo not shown) [Compound 112] | 19.4 µM | No cessation of beating | Does Not Shorten | Does Not Shorten | Does Not Shorten | – | –
4 | Cc1cncc(OCC(N)c2ccccc2)c1 (stereo not shown) [Compound 113] | 7.24 µM | – | Does Not Shorten | Does Not Shorten | Does Not Shorten | – | –
5 | NC(COc1cnccc1C(F)(F)F)c1ccccc1 (stereo not shown) [Compound 115] | 25.7 µM | No cessation of beating | Does Not Shorten | Does Not Shorten | Does Not Shorten | – | –
6 | Cc1ccnc(C)c1OCC(N)c1ccccc1 (stereo not shown) [Compound 118] | 8.22 µM | No cessation of beating | Does Not Shorten | Does Not Shorten | Does Not Shorten | – | –
7 | Cc1cc(C)c(OCC(N)c2ccccc2)cn1 (stereo not shown) [Compound 120] | 7.33 µM | No cessation of beating | Does Not Shorten | Does Not Shorten | Does Not Shorten | – | –
8 | COCCNC(COc1cccnc1)c1ccccc1 (stereo not shown) [Compound 121] | 25.4 µM | No cessation of beating | 1.144 | – | – | – | EC50 ([2]; read-out: LQT-EC50 (μM) Shortening, LQT-3 cardiomyocytes, AP shortening): 2.58 µM; LQT-3 shortening (in words) ([5]; LQT-3 cells): moderate shortening
9 | COCCNC(COc1ccncc1)c1ccccc1 (stereo not shown) [Compound 127] | 97.7 µM | No cessation of beating | Does Not Shorten | Does Not Shorten | Does Not Shorten | – | –
10 | Cc1cc(C)cc(OCC(N)c2ccccc2)c1 (stereo not shown) [drawing 309] | – | – | – | – | – | > 30 days | half-life at 100 μM [8, 10]: > 30 days
11 | NC(COc1cc(C(F)(F)F)cc(C(F)(F)F)c1)c1ccccc1 (stereo not shown) [drawing 310] | – | – | – | – | – | > 30 days | half-life at 100 μM [8, 10]: 30 days
12 | Cc1ccccc1OCC(N)c1ccccc1 (stereo not shown) [drawing 311] | – | – | – | – | – | > 15 days | –
13 | NC(COc1ccccc1C(F)(F)F)c1ccccc1 (stereo not shown) [drawing 312] | – | – | – | – | – | > 15 days | half-life at 100 μM [8, 10]: > 30 days
